Patent US20230263956A1, “INGESTIBLE DRUG DELIVERY DEVICE” (Massachusetts Institute of Technology, priority 2020, published 2023)

Assay: In vivo testing: tethered device jetting insulin into the stomach wall
Parameters: species or system Yorkshire pigs
Conditions: jet of insulin into stomach wall, 0.5 Units per kilogram, three of the five device tests, samples until two hours after deployment
Method: Studies were performed by trained veterinary technicians at MIT's animal testing facilities. Yorkshire pigs weighing between 70 and 90 kg were used. All studies were terminal studies (meaning the animal was euthanized immediately afterward). […] The testing protocol is described further below.
This formulation procedure was carried out the morning or evening before each in vivo study, and the resulting solution it was stored at 4° C. until the time of administration.
The device was loaded with API and CO2 in the operating room where the animal was sedated and intubated. The device was deployed either by direct placement into the stomach through a laparotomy, or via an over-tube with an endoscope and snare. Of the five deployments performed with this device, the first three were performed by laparotomy, and the latter two by endoscope. Triggering generally occurred within 15 minutes and could be identified through recoil and minor foaming near the base of the device.
Blood samples were collected by ear catheter or femoral catheter. […] The blood-glucose level was monitored at each draw using commercial glucose monitoring strips. […] The samples were then subsequently analyzed with a custom Ezyme-linked immunosorbent assay (ELISA) for […].

For insulin, the blood glucose levels was “drop in blood glucose levels”.
